# In the NIST ThermoML archive (doi:10.1016/j.fluid.2014.04.020):
# Numbers after ± are expanded uncertainties.
# Columns and labels:
# [1] = Crystal; DTA
# [2] = Molar enthalpy of transition or fusion; conditions: Crystal; DSC
Normal melting temperature [1] [°C],Molar enthalpy of transition or fusion [2] [kcal/mol],SMILES
31.10 ± 0.53,6.51 ± 0.287,CCCCCCCCCC(=O)O [decanoic acid]
43.00 ± 0.53,8.48 ± 0.382,CCCCCCCCCCCC(=O)O [dodecanoic acid]
27.80 ± 0.53,14.7 ± 0.645,CCCCCCCCCCCCCCCCCC [octadecane]
